In ChEMBL document CHEMBL1155727, “Prunioside A: a new terpene glycoside from Spiraea prunifolia” (J Nat Prod, 2001) one finds inhibition data, which are given here for 2 compounds.

Activity calls are given as the source filed them. The calls are words filed in the database; no cut-off is given here.

Common to all, as to type: functional, cell-based
In test [1] the test system is RAW264.7. Put plainly: Antiinflammatory activity in LPS-stimulated mouse RAW264.7 cells assessed as inhibition of nitric oxide production at 200 ug/mL after 18 hrs by Griess reagent-based ELISA.
In test [2] the test system is RAW264.7. Put plainly: Antiinflammatory activity in IFN-gamma-stimulated mouse RAW264.7 cells assessed as inhibition of nitric oxide production at 200 ug/mL after 18 hrs by Griess reagent-based ELISA.
Test [3] concerns RAW264.7. Description: Antiinflammatory activity in LPS-stimulated mouse RAW264.7 cells assessed as inhibition of nitric oxide production after 18 hrs by Griess reagent-based ELISA.
Test [4] relates to RAW264.7. Put plainly: Antiinflammatory activity in IFN-gamma-stimulated mouse RAW264.7 cells assessed as inhibition of nitric oxide production after 18 hrs by Griess reagent-based ELISA.
Test [5] deals with RAW264.7. Put plainly: Inhibition of iNOS mRNA expression in LPS-stimulated mouse RAW264.7 cells at 0.1 to 20 ug/mL by RT-PCR analysis.
The test system of test [6] is RAW264.7. Put plainly: Inhibition of iNOS mRNA expression in IFN-gamma-stimulated mouse RAW264.7 cells at 0.1 to 20 ug/mL by RT-PCR analysis.

As to `C=C(C)C(OC(=O)/C=C/c1ccc(O)cc1)C1C/C(=C/CO[C@@H]2O[C@H](CO)[C@@H](O)[C@H](O)[C@H]2O)C(=O)O1` (stereo partly specified), the inhibition result in test [1] and in test [2] was “inactive” each time.

As for `C=C(C)C(OC(=O)/C=C/c1ccc(OC(C)=O)cc1)C1C/C(=C/CO[C@@H]2O[C@H](COC(C)=O)[C@@H](OC(C)=O)[C@H](OC(C)=O)[C@H]2OC(C)=O)C(=O)O1` (stereo partly specified), the inhibition entry in test [3] and in test [4] was “Dose-dependent effect” in each case. Also, the inhibition entry in test [5] and in test [6] was “Active” throughout.
